Source: patent US20170368082A1, “FORMULATIONS OF BRINCIDOFOVIR” (priority 2016, published 2017)
“Also recorded” adds a separate entry of the source. Where two headings read alike, the source gives them in different places.

Experiments:
[1] = PBMC PK of CDV-PP following IV and oral suspension BCV; format: in vivo, human; conditions: BCV 50 mg, 2- or 4-h IV infusion
Method: Two single dose BCV studies in healthy subjects contributed data for this analysis. The first study was a 2-period crossover bioequivalence study that enrolled 24 subjects who received two formulations of BCV oral suspension 100 mg fasted, one in each period. Data from 12 subjects who had PBMCs collected in Period 1 were included in this analysis; these subjects were 100% female, 31-59 years, and 58-88 kg. The second study, outlined above, enrolled 40 subjects who received IV BCV or placebo. Data from 18 subjects who received BCV 50 mg as either a 2-h or 4-h IV infusion were included in this analysis; these subjects were 100% male, 18-46 years, 64-106 kg. Serial PBMC samples were collected over 14 days and assayed by HPLC-MS-MS. PBMC CDV-PP PK parameters were determined by non-compartmental analysis.

[2] = cited from earlier work
[3] = system: human whole blood; assay: Hemolytic potential, cyanmethemoglobin method, human whole blood; format: cell-based; conditions: for Mean HgB Concentration: interference control, Phase 2
Method: Each concentration of test item for the rat was mixed separately in a 1:4 ratio with rat whole blood while each concentration of test item for the human was mixed separately in a 1:4 ratio with human whole blood. These samples plus control samples [vehicle control (vehicle+whole blood, 1 for rat and 1 for humans), positive control (1% Saponin+whole blood), untreated whole blood control and negative control (saline+whole blood) were analyzed for hemolysis (supernatant hemoglobin concentration).
(§1) The rat and human whole blood samples were incubated in test or control items at 37±1° C. for 20 minutes and then immediately (within 2 minutes) centrifuged at 3500±100 rpm (2740 g) at room temperature for 5-10 minutes. The supernatant was extracted and subjected to a hemoglobin analysis using the cyanmethemoglobin method employed on the Siemens Advia 120 hematology analyzer. If the test item has a potential for causing hemolysis, then hemoglobin released from lysed red blood cells into the plasma supernatant can be quantified via the reaction of heme iron in solution being oxidized from a ferrous to a ferric state in the presence of potassium cyanide. The reaction results in the formation of methemoglobin, which then combines with cyanide to form a stable cyanmethemoglobin. When measured spectrophotometrically at 546 nm the absorbance of cyanmethemoglobin follows Beer's Law and is directly proportional to the concentration of hemoglobin released into solution.
as §1, with “Without wishing to be bound by theory, if” for “If”

[4] = Clinical infusion bag compatibility; format: physicochemical
Method: A standard mini-infusion bag (100 mL) was subjected to material compatibility testing with the following formulation:
The developed brincidofovir formulation (15 mg/mL brincidofovir, 200 mM sodium phosphate, pH=8.0) was diluted to c(BCV)=0.1 and c(BCV)=1.0 mg/mL by injection into the infusion bags. The infusion bags were then stored at ambient conditions, and samples were collected from the infusion bags at the time points (t0, t1h, t8h, and t24h) for assessments of appearance, pH, and c(BCV). As a control, the 5% dextrose solution was removed from a separate infusion bag, and external dilutions (standard laboratory glassware) of the testing formulation with the 5% dextrose solution were performed applying identical dilution factors. Samples of the external diluted solution were likewise analyzed.
Solutions of Formulation 3a, in a 5% dextrose injection vehicle, were prepared at two different formulation strengths (1.0 mg/mL and 0.1 mg/mL brincidofovir), and stored in the infusion bag at ambient conditions. Samples form the infusion bags and from an externally diluted standard were evaluated for appearance, pH and brincidofovir recovery (determined via HPLC) at the beginning of the study (t0), after 8 h (t8h), and after 24 h (t24h).

[5] = c(BCV) 0.1 mg/mL in infusion bag, t0
[6] = c(BCV) 0.1 mg/mL in infusion bag, t1 h
[7] = c(BCV) 0.1 mg/mL in infusion bag, t8 h
[8] = c(BCV) 0.1 mg/mL in infusion bag, t24 h
[9] = c(BCV) 0.1 mg/mL, external dilution
[10] = c(BCV) 1.0 mg/mL in infusion bag, t0
[11] = c(BCV) 1.0 mg/mL in infusion bag, t1 h
[12] = c(BCV) 1.0 mg/mL in infusion bag, t8 h
[13] = c(BCV) 1.0 mg/mL in infusion bag, t24 h
[14] = c(BCV) 1.0 mg/mL, external dilution

CCCCCCCCCCCCCCCCOCCCOP(=O)(O)CO[C@H](CO)Cn1ccc(N)nc1=O [Brincidofovir]
Intracellular CDV-PP exposure vs BCV 100 mg oral suspension [1]: comparable | Instance of diarrhea ([2]; single oral dose 100 mg and 200 mg): about 5% | Instance of diarrhea ([2]; single oral dose 350 mg): about 20% | Hemocompatibility / hemolytic potential ([3]; 0.2, 0.5 and 1.6 mg/mL): no hemolytic potential in human whole blood; also recorded: no effect from brincidofovir on hemocompatibility | Mean HgB Concentration ([3]; Tube 2A: Test Item (0.2 mg/mL) + saline): 0.0 g/dL | Mean HgB Concentration ([3]; Tube 2B: Test Item (0.5 mg/mL) + saline): 0.0 g/dL | Mean HgB Concentration ([3]; Tube 2C: Test Item (1.6 mg/mL) + saline): 0.0 g/dL | Appearance [4, 5]: Clear, | Measured pH [4, 5]: 7.9 | Observed c(BCV) [4, 5]: 0.092 mg/mL | Appearance [4, 6]: Clear, | Measured pH [4, 6]: 7.9 | Observed c(BCV) [4, 6]: 0.093 mg/mL | Appearance [4, 7]: Clear, | Measured pH [4, 7]: 7.9 | Observed c(BCV) [4, 7]: 0.093 mg/mL | Appearance [4, 8]: Clear, | Measured pH [4, 8]: 7.9 | Observed c(BCV) [4, 8]: 0.093 mg/mL | Appearance [4, 9]: Clear, | Measured pH [4, 9]: 7.9 | Observed c(BCV) [4, 9]: 0.098 mg/mL | Appearance [4, 10]: Clear, | Measured pH [4, 10]: 8.2 | Observed c(BCV) [4, 10]: 0.87 mg/mL | Appearance [4, 11]: Clear, | Measured pH [4, 11]: 8.2 | Observed c(BCV) [4, 11]: 0.87 mg/mL | Appearance [4, 12]: Clear, | Measured pH [4, 12]: 8.2 | Observed c(BCV) [4, 12]: 0.87 mg/mL | Appearance [4, 13]: Clear, | Measured pH [4, 13]: 8.1 | Observed c(BCV) [4, 13]: 0.86 mg/mL | Appearance [4, 14]: Clear, | Measured pH [4, 14]: 8.2 | Observed c(BCV) [4, 14]: 0.94 mg/mL
